According to publication PMC4472782, “Antibacterial Characterization of Novel Synthetic Thiazole Compounds against Methicillin-Resistant Staphylococcus pseudintermedius” (PLoS ONE, 2015):

Assays:
[1] = system: murine macrophage cell line (J774.A1); experiment: In vitro cytotoxicity analysis (MTS assay); assay type: cell-based; settings: 10 μg/mL, J774.A1, two hours
Protocol: Compounds were assayed at concentrations of 5 μg/mL, 10 μg/mL, 20 μg/mL, and 40 μg/mL against a murine macrophage cell line (J774.A1) (ATCC TIB-67, American Type Culture Collection (ATCC), Manassas, VA, USA) to determine the potential toxic effect in vitro. Cells were cultured in Dulbeco’s modified Eagle’s medium (Sigma-Aldrich, St. Louis, MO, USA) with 10% fetal bovine serum (USA Scientific, Inc.) at 37°C with 5% CO2. Controls received DMSO alone at a concentration equal to that in drug-treated cell samples. The cells were incubated with the compounds in a 96-well plate at 37°C and 5.0% CO2 for two hours prior to addition of the assay reagent MTS 3-(4,5-dimethylthiazol-2-yl)-5-(3-carboxymethoxyphenyl)-2-(4-sulfophenyl)-2H-tetrazolium) (Promega, Madison, WI, USA). Absorbance readings were taken using a kinetic ELISA microplate reader (Molecular Devices, Sunnyvale, CA, USA). The quantity of viable cells after treatment with each compound was expressed as a percentage of the control, DMSO.
All statistical analyses were performed with GraphPad Prism 6.0 (GraphPad Software, La Jolla, CA). Data generated from cytotoxicity analysis of the thiazole compounds against J774.A1 cells and the 260 and 280 nm cell leakage analysis were analyzed using one-way ANOVA, with post hoc Tukey's multiple comparisons test (P < 0.05).

MRSP SP3 = experiment: Checkerboard assay of thiazole compounds with oxacillin; assay type: cell-based, Staphylococcus pseudintermedius
Protocol: The relationship between the thiazole compounds and oxacillin was assessed via a standard checkerboard assay. Bacteria (MRSP SP3) equivalent to a McFarland standard of 0.5 were prepared in PBS. The bacteria were next diluted in MHB to achieve a starting cell density of 1 × 10^5 CFU/mL. MHB was transferred to all wells of a 96-well microtiter plate. […] Oxacillin was serially diluted along the abscissa of the microtiter plate while the thiazole compound was serially diluted along the ordinate. The plate was incubated for 22–24 hours at 37°C. The MIC of the test compound in combination with oxacillin was determined as the lowest concentration of each compound/antibiotic where no visible growth of bacteria was observed. The fractional inhibitory concentration index (ƩFIC) was calculated for each combination as described previously. A synergistic relationship was classified as an FIC index less than or equal to 0.5. […]

SMILES: CCCCC#Cc1ccc(-c2nc(C)c(/C(C)=N/NC(=N)N)s2)cc1 [Compound 3]
- toxicity to murine macrophage cells (MTS assay) [1]: not toxic
- relationship with oxacillin (MRSP SP3; checkerboard assay): synergistic
- ƩFIC (MRSP SP3; combination with oxacillin, ≤ 0.5 synergistic, > 0.5 to ≤ 4.0 indifference, > 4 antagonistic): 0.38
